Legend:
[1] = system: CCR2 expressing cells (CD11b+Ly6c+Hi monocytes); assay: In vivo depletion assay (flow cytometry of peripheral blood); set-up: species or system human CCR2 (hCCR2) knock-in mice; conditions: IV bolus 0.1 mpk compound + 10 mpk anti-cotinine antibody (mouse IgG2a Fc), 48 hours
Method: Human CCR2 (hCCR2) knock-in mice (C57 background) were dosed intravenously with a PBS solution containing a compound of Formula (I) to measure depletion of CCR2 expressing cells in peripheral blood. Peripheral blood from IV dosed mice was also analyzed to determine PK properties of the compounds of Formula (I).
Formulations preparation: On the day of experiment, the stock solution of the compound of Formula (I) was removed from storage at −20° C. and thawed at room temperature. Anti-cotinine antibody having a heavy chain sequence of SEQ ID NO: 13 and a light chain sequence of SEQ ID NO: 14 (rabbit variable region sequence with mouse IgG2a Fc domain), if required was removed from storage at −80° C. and thawed at room temperature. Antibody vials were immediately transferred into wet ice after thawing. Compounds of Formula (I) were further diluted in DMSO as per experimental requirements.
Formulation composition: The formulation composition was Saline: DMSO: PBS. Saline was added based on the quantity required and then stock solution of the compound of Formula (1) prepared in DMSO, followed by addition of antibody in PBS. Formulations were incubated at room temperature for 30 minutes before administration to the mouse. DMSO was used at 1 to 2% (v/v) in the final formulation.
Administration to Animal: Solution formulation of antibody and compound of Formula (I) was injected (bolus injection) to the restrained mouse in the right/left lateral tail vein. Animals were dosed with 0.1 milligram per kilogram (mpk) of the compound of Formula (I) and 10 mpk of the anti-cotinine antibody.
Terminal bleeding at end of experiment (48 hr): Approximately 250 μL of blood in K2EDTA tube and approximately 250 μL of blood in SST (serum separation tube) was collected from each mouse through retro-orbital bleeding under deep isoflurane anesthesia. After bleeding, each mouse was sacrificed by cervical dislocation. The blood distribution at termination was determined as follows: • For PK: 50 μL of K2EDTA blood was transferred to another tube for PK • Flow cytometry: Remaining blood (˜200 μL) was used for flow cytometry analysis. • For serum collection: serum separator tubes (BD) were centrifuged at 4° C., 5000 rpm for 15 minutes. Approximately 100 μL serum was separated and stored at −80° C. for further usage. • Blood drug concentration: Samples collected at the various timepoints (0.25 hr, 2 hr, 24 and 48 hr) were analyzed to determine blood drug concentration.
Flow cytometry analysis: CCR2 depletion in peripheral blood was determined by flow cytometry. Briefly, peripheral blood was collected from all animals at the end of study termination and processed. […]
Percent depletion of CD11b+Ly6c+Hi cells and CCR2 expression for the different treatment groups was determined. […]

[2] = molecular target: human alpha1 nicotinic acetylcholine (nACh) receptor (Homo sapiens, UniProt P02708+Q07001); assay: Nicotinic acetylcholine receptor antagonism assay (IONFlux automated patch clamp); format: cell-based; conditions: for Emax at 33.3 µM: maximum percentage antagonism at highest concentration tested, read-out: Maximum Response (%); for IC50: nAChR antagonism, stimulated with ACh, average if more than one run
Chain of human alpha1 nicotinic acetylcholine (nACh) receptor (P02708 21-457): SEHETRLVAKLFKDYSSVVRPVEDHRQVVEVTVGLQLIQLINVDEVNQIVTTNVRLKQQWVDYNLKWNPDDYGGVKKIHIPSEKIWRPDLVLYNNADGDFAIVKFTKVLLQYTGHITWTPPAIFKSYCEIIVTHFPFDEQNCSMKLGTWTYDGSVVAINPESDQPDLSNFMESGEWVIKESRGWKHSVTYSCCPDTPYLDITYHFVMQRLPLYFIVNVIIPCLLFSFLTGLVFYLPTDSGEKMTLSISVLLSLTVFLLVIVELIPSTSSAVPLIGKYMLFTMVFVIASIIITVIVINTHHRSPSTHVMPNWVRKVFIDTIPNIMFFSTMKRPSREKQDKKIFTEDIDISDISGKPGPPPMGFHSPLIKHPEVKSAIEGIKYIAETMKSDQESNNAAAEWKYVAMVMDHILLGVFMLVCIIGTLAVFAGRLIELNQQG
Chain of human alpha1 nicotinic acetylcholine (nACh) receptor (P11230 24-501 partner): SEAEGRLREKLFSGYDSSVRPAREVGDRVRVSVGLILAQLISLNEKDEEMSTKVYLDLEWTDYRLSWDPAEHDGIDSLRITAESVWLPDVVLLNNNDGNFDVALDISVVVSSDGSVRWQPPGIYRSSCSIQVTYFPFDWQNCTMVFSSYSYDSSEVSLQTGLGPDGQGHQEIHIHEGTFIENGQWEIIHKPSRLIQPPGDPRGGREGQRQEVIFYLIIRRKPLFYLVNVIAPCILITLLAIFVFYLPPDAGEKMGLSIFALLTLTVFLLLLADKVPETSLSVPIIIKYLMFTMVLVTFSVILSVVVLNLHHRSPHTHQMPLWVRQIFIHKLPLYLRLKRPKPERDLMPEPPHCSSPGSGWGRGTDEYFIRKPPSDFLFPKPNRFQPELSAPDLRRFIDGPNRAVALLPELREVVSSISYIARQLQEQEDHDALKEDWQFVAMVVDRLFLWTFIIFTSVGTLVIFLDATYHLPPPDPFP
Chain of human alpha1 nicotinic acetylcholine (nACh) receptor (Q07001 22-517): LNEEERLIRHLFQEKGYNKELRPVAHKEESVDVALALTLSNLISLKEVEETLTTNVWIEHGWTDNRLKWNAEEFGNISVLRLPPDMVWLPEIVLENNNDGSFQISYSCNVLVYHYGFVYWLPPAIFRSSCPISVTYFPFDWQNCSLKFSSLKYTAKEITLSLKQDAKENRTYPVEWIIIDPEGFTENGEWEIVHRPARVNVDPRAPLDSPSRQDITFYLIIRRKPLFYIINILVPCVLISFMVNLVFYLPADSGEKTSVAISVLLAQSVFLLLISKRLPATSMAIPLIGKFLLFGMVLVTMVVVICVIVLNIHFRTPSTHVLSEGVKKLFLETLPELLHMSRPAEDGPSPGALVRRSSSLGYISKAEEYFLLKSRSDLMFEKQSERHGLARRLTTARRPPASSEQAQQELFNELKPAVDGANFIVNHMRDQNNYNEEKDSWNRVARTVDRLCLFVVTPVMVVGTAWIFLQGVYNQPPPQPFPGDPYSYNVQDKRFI
Excerpt: Cells expressing human alpha1 nicotinic acetylcholine (nACh) receptor (nAChR) were washed and dissociated using Trypsin containing buffer. Cells were then washed and seeded at a density of 3-5 million cells/mL and allowed to grow for 3 days. […] The receptor was then stimulated via addition of acetylcholine (ACh) and activation of the receptor was monitored via the IONFlux automated patch clamp system. IonFlux Data Analyzer software was utilized to perform leak subtraction and measure (min) peak current amplitude.
Data processing: (1) Current values recorded for vehicle only applications in individual traps/patterns were subtracted from corresponding current amplitude values for control, test article and control+test article. (2) Control response was calculated as % of the average response of the 3rd out of total 3 ACh (10 mM) applications alone. In rare situations, if the 3rd ACh response was obscured due to technical artifacts, the 2nd and/or 1st ACh (10 mM) application was considered as control. The peak current amplitude generated in the presence of each test article concentration was then used to calculate the % inhibition as compared to control response (10 mM ACh alone). These estimates were further corrected for vehicle response and run down corrected by normalizing with time matched control responses (10 mM ACh alone). The corrected percentages were then fit with a non-linear function in GraphPad Prism 6 (or later versions) to determine the IC50.
Exclusion criteria: (i) any n's with poor recording quality, (ii) control current amplitude <500 pA or (iii) significant outliers, as determined by the Grubbs' test.
ARMs compounds of Formula (I) of the invention were tested for antagonism of the nAChR in the above assay in […] experimental runs and the results are shown in Table 5 below. Antagonistic activity of the compounds of Formula (I) of the invention is reported as an IC50 value (half maximal inhibitory concentration) and the maximum percentage antagonism observed at the highest concentration of compound of Formula (I) tested, as indicated in Table 5. For compounds tested in more than one experimental run, the IC50 value is reported as an average.

CC(=O)N[C@@H]1C[C@H](NC(C)(C)C)CC[C@@H]1N1CC[C@H](Nc2nc([C@H]3CC[C@@H](NC(=O)[C@H]4CC[C@H](NC(=O)CCCO[C@H]5CC[C@H](OCCNC(=O)[C@H]6CC(=O)N(C)[C@@H]6c6cccnc6)CC5)CC4)CC3)nc3ccc(C(F)(F)F)cc23)C1=O [Example 10, (2S,3S)-N-(2-(((1R,4S)-4-(4-(((1R,4R)-4-(((1R,4S)-4-(4-(((S)-1-((1S,2R,4R)-2-Acetamido-4-(tert-butylamino)cyclohexyl)-2-oxopyrrolidin-3-yl)amino)-6-(trifluoromethyl)quinazolin-2-yl)cyclohexyl)carbamoyl)cyclohexyl)amino)-4-oxobutoxy)cyclohexyl)oxy)ethyl)-1-methyl-5-oxo-2-(pyridin-3-yl)pyrrolidine-3-carboxamide]
% Depletion of CCR2 expressing cells [1]: 89.71%
Emax at 33.3 µM [2]: 28%
IC50 [2]: > 33.3 µM

CC(=O)N[C@@H]1C[C@H](NC(C)(C)C)CC[C@@H]1N1CC[C@H](Nc2nc(CCCCNC(=O)[C@H]3CC[C@H](NC(=O)CCCO[C@H]4CC[C@H](OCCNC(=O)[C@H]5CC(=O)N(C)[C@@H]5c5cccnc5)CC4)CC3)nc3ccc(C(F)(F)F)cc23)C1=O [Example 3, (2S,3S)-N-(2-(((1R,4S)-4-(4-(((1S,4R)-4-((4-(4-(((S)-1-((1S,2R,4R)-2-Acetamido-4-(tert-butylamino)cyclohexyl)-2-oxopyrrolidin-3-yl)amino)-6-(trifluoromethyl)quinazolin-2-yl)butyl)carbamoyl)cyclohexyl)amino)-4-oxobutoxy)cyclohexyl)oxy)ethyl)-1-methyl-5-oxo-2-(pyridin-3-yl)pyrrolidine-3-carboxamide]
% Depletion of CCR2 expressing cells [1]: 84%
Emax at 33.3 µM [2]: 38%
IC50 [2]: > 33.3 µM

CC(=O)N[C@@H]1C[C@H](NC(C)(C)C)CC[C@@H]1N1CC[C@H](Nc2nc([C@H]3CC[C@H](NC(=O)[C@H]4CC[C@H](NC(=O)CCCO[C@H]5CC[C@H](OCCNC(=O)[C@H]6CC(=O)N(C)[C@@H]6c6cccnc6)CC5)CC4)CC3)nc3ccc(C(F)(F)F)cc23)C1=O [Example 11, (2S,3S)-N-(2-(((1R,4S)-4-(4-(((1S,4R)-4-(((1S,4R)-4-(4-(((S)-1-((1S,2R,4R)-2-Acetamido-4-(tert-butylamino)cyclohexyl)-2-oxopyrrolidin-3-yl)amino)-6-(trifluoromethyl)quinazolin-2-yl)cyclohexyl)carbamoyl)cyclohexyl)amino)-4-oxobutoxy)cyclohexyl)oxy)ethyl)-1-methyl-5-oxo-2-(pyridin-3-yl)pyrrolidine-3-carboxamide]
% Depletion of CCR2 expressing cells [1]: 95.41%
Emax at 33.3 µM [2]: 47%
IC50 [2]: > 33.3 µM

Source: patent US20250057958A1, “CYTOTOXICITY TARGETING CHIMERAS FOR CCR2-EXPRESSING CELLS” (GLAXOSMITHKLINE INTELLECTUAL PROPERTY DEVELOPMENT LIMITED, priority 2022, published 2025)
